Tests used:
Conditions in all cases: incubation time: 72 h
[1] = tested on: BT-474; assay: normalised response (% of control), CellTox Green; higher = less cell death (100 = DMSO, 0 = benzethonium chloride kill control)
In short: (§1)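 Two readouts were taken after 72 h: CellTox Green fluorescence (485/520 nm) first, then CellTiter-Glo luminescence after 10 min at room temperature. Breast cancer cell lines had been seeded as 20 µl suspension into 384-well plates holding compound at 5 concentrations in 10-fold steps across a compound-specific 10,000-fold range. Each value is a normalised signal at a single concentration, with plates scaled to 0.1 % DMSO (100) and a positive kill control (0).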

[2] = tested on: BT-549; assay: as above
In short: as §1

[3] = tested on: CAL-120; assay: as above
In short: as §1

[4] = tested on: CAL-148; assay: as above
In short: as §1

[5] = tested on: CAL-51; assay: as above
In short: as §1

[6] = tested on: CAL-85-1; assay: as above
In short: as §1

[7] = tested on: DU-4475; assay: as above
In short: as §1

[8] = tested on: HCC1143; assay: as above
In short: as §1

[9] = tested on: HCC1599; assay: as above
In short: as §1

[10] = tested on: HCC1937; assay: as above
In short: as §1

[11] = tested on: HDQ-P1; assay: as above
In short: as §1

[12] = tested on: Hs578T; assay: as above
In short: as §1

[13] = tested on: MCF-10A; assay: as above
In short: as §1

[14] = tested on: MDA-MB-231; assay: as above
In short: as §1

[15] = tested on: MDA-MB-453; assay: as above
In short: as §1

[16] = tested on: MDA-MB-468; assay: as above
In short: as §1

[17] = tested on: MFM-223; assay: as above
In short: as §1

[18] = tested on: BT-474; assay: normalised response (% of control), CellTiter-Glo; higher = more viable cells (100 = DMSO, 0 = benzethonium chloride kill control)
Protocol: (§2)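 DSRT, 72 h incubation, CellTox Green / CellTiter-Glo readout. Signal is normalised to DMSO and benzethonium chloride controls. Value is the normalised response at the highest dose.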

[19] = tested on: BT-549; assay: as above
Protocol: as §2

[20] = tested on: CAL-120; assay: as above
Protocol: as §2

[21] = tested on: CAL-148; assay: as above
Protocol: as §2

[22] = tested on: CAL-51; assay: as above
Protocol: as §2

[23] = tested on: CAL-85-1; assay: as above
Protocol: as §2

[24] = tested on: DU-4475; assay: as above
Protocol: as §2

[25] = tested on: HCC1143; assay: as above
Protocol: as §2

[26] = tested on: HCC1599; assay: as above
Protocol: as §2

[27] = tested on: HCC1937; assay: as above
Protocol: as §2

[28] = tested on: HDQ-P1; assay: as above
Protocol: as §2

[29] = tested on: Hs578T; assay: as above
Protocol: as §2

[30] = tested on: MCF-10A; assay: as above
Protocol: as §2

[31] = tested on: MDA-MB-231; assay: as above
Protocol: as §2

[32] = tested on: MDA-MB-436; assay: as above
Protocol: as §2

[33] = tested on: MDA-MB-453; assay: as above
Protocol: as §2

[34] = tested on: MDA-MB-468; assay: as above
Protocol: as §2

[35] = tested on: MFM-223; assay: as above
Protocol: as §2

[36] = tested on: SK-BR-3; assay: as above
Protocol: as §2

[37] = tested on: MDA-MB-436; assay: normalised response (% of control), CellTox Green; higher = less cell death (100 = DMSO, 0 = benzethonium chloride kill control)
In short: as §1

SMILES	normalised response [1] [%]	normalised response [2] [%]	normalised response [3] [%]	normalised response [4] [%]	normalised response [5] [%]	normalised response [6] [%]	normalised response [7] [%]	normalised response [8] [%]	normalised response [9] [%]	normalised response [10] [%]	normalised response [11] [%]	normalised response [12] [%]	normalised response [13] [%]	normalised response [14] [%]	normalised response [15] [%]	normalised response [16] [%]	normalised response [17] [%]	normalised response [18] [%]	normalised response [19] [%]	normalised response [20] [%]	normalised response [21] [%]	normalised response [22] [%]	normalised response [23] [%]	normalised response [24] [%]	normalised response [25] [%]	normalised response [26] [%]	normalised response [27] [%]	normalised response [28] [%]	normalised response [29] [%]	normalised response [30] [%]	normalised response [31] [%]	normalised response [32] [%]	normalised response [33] [%]	normalised response [34] [%]	normalised response [35] [%]	normalised response [36] [%]	normalised response [37] [%]
CN1CCN(CCOc2cc(OC3CCOCC3)c3c(Nc4c(Cl)ccc5c4OCO5)ncnc3c2)CC1 [Saracatinib] (10000 nM)	42	86.2	94.5	68.4	58	29.9	95.5	96.4	76.6	81.7	68.9	59.7	87.1	51.3	79	125	90.4	55	57.8	66.3	75.2	59.8	27.9	106	67.1	19.4	56	34.6	64.8	21.4	47.5	83	63.1	67.5	64.9	46.9	
C[C@]12CC[C@H](O)CC1=CC[C@@H]1[C@@H]2CC[C@]2(C)C(c3cccnc3)=CC[C@@H]12 [Abiraterone] (5000 nM)	99.7	128	98	87.5	96.6	77.8	111	107	113	120	62.7	116	76.5	122	110	151	101	97	96.4	103	104	98.4	112	99.6	97.1	107	97.7	104	102	109	101	100	112	99.3	103	104	111
Cn1cncc1[C@@](N)(c1ccc(Cl)cc1)c1ccc2c(c1)c(-c1cccc(Cl)c1)cc(=O)n2C [Tipifarnib] (10000 nM)	75.5	90.4	81	89.5	84	75.2	85.6	98.7	98	72.2	69.9	101	92.6	57.5	92.4	88.8	75.5	53.9	40.3	63.4	54.7	59.1	61.5	46.9	49.6	40.6	53.1	60.2	49.6	74.3	73.8	34.7	63.7	31.8	39.6	33.5	81.1
O=C(O)CCCc1ccc(N(CCCl)CCCl)cc1 [Chlorambucil] (10000 nM)	99.8	78.8	102	95.3	81.7	82.5	98.1	102	105	105	104	124	83	104	102	141	99.2	96	91.9	100	103	117	96.2	96.9	96.9	89.3	94.9	101	103	97.3	97.6	81.3	123	94.1	108	101	66.2
CNNCc1ccc(C(=O)NC(C)C)cc1 [Procarbazine] (10000 nM)	103	94	111	93	110	72	96.2	115	98.3		99.9	108	115	99	60.5		94.5	98	101	106	107	96.3	99.3	102	113	96.8	103	104	105	109	103	103	102	99.4	108	109	81.7
Nc1nc(OCc2cc(Br)cs2)c2[nH]cnc2n1 [Lomeguatrib] (10000 nM)	95.9	96.6	104	69.2	89.2	114	97.9	98	99.2		104	108	75.2	112	92.8	161	98.5	98.9	93.5	101	101	67.2	97	102	94.5	106	103	96.5	98.7	97.4	98.5	90.6	91.3	87.1	91.8	93.9	94.1
Cc1ccc(NC(=O)c2ccc(CN3CCN(C)CC3)cc2)cc1Nc1nccc(-c2cccnc2)n1 [Imatinib] (10000 nM)	96.6	92.7	101	103	93.1	84.2	97.9	91.2	94.8		74.4	76.1	65.1	114	-13.7	113	99.9	87.4	89.5	108	116	76.5	85.7	107	91.3	71.6	83.6	111	98.3	128	94.8	94.3	73.4	86.8	87.7	84.7	87.4
c1ccc([C@H]2CN3CCSC3=N2)cc1 [Levamisole] (10000 nM)	101	95.8	98.4	53.5	113	79.1	104	106	92.5	82.5	72.4	72	67.3		71.4	110	95.2	102	96.5	112	106	119	94	98.9	99.3	114	100	104	100	110	104	108	106	104	108	110	
CC(C)(C#N)c1cc(Cn2cncn2)cc(C(C)(C)C#N)c1 [Anastrozole] (10000 nM)	93	98.8	99.1	105	100	92.9	95.3		106	69.8	105	77.6	105		88	116	89.5	97.5	102	98.3	104	98.6	104	103	102	99.8	101	100	100	101	99.9	96	108	105	103	108	107
